Experimental data reported in patent publication US11702424B2, “Bicyclic-fused heteroaryl or aryl compounds” (Pfizer Inc., priority 2014, dated 2023).

Legend:
[1] = tested on: collagen-induced arthritis; assay: In Vivo Rat Collagen-Induced Arthritis Model; conditions: Lewis rat CIA; for days on which hind paw swelling in CIA rats was significantly reduced (t-test, p<0.05 vs. vehicle): paw volume by plethysmograph
Experimental: In Vivo Rat Collagen-Induced Arthritis Model.
Efficacy of IRAK4 compounds of the present invention was also evaluated in a rat in vivo model of rheumatoid arthritis (M. Hegen, J. C. Keith, Jr, M. Collins, C. L. Nickerson-Nutter, Ann. Rheum. Dis. 2008, 67, 1505-1515). An exemplary protocol for this in vivo model follows.
Female Lewis rats, approximately 7 weeks old, were immunized with an emulsion of type II collagen (CII) and incomplete Freund's adjuvant (IFA) on day 0 and received a boost of CII/IFA on day 7. Hind paw volume increase was taken by plethysmograph. Animals were randomly enrolled into treatment groups based on the development of disease. Beginning on day 11 post immunization, rats were enrolled into random treatment groups based on an increase in a single hind paw volume compared to day 7 post immunization baseline measurements.
Ten rats were enrolled per treatment group with the exception of the naive control group, which contained two rats. Day 0 was designated as the first treatment day, and paw measurements are taken daily by plethysmograph. The rats were weighed on a daily basis.
IRAK4 inhibitors are efficacious in the Lewis rat model of collagen-induced arthritis.

[2] = tested on: serum TNF; assay: In Vivo Mouse LPS/D-Gal Challenge Model; conditions: oral, serum TNF vs. vehicle
Experimental: In Vivo Mouse LPS/D-Gal Challenge Model.
Efficacy of IRAK4 compounds of the present invention was also evaluated in an in vivo mouse model of endotoxin induced (Lipopolysaccharide (LPS)) inflammation. See: S. Copeland, H. W. Warren, S. F. Lowry, S. E. Calvano, and D. Remick, Clin. Diagn. Lab. Immnol. 2005, 12(1), 60-67. An exemplary protocol for this in vivo model follows.
Female C57/BL6 mice, 8 to 10 weeks old, are orally administered either vehicle or formulated IRAK-4 compound 1 hour prior to the challenge. Vehicle or IRAK4 compound is administered by oral gavage at a volume of 10 mL/kg. One hour post oral delivery of vehicle or compound, the animals are challenged with an intraperitoneal injection (IP) of a solution containing 1 μg/mL LPS and 80 mg/mL D-gal. Each mouse is injected with […] of the solution, for a final challenge dose of 100 ng LPS and 8 mg D-gal. Ninety minutes post LPS/D-gal challenge, animals are euthanized and blood collected. Blood is allowed to clot at room temperature and serum is separated by centrifugation and stored at −80° C. for analysis. Serum TNF and IL-6 are measured by Meso Scale Discovery (MSD) multiplex platform.
The groups consisted of N=10 animals/group. Naïve animals and vehicle control groups were run with each study. Mean cytokine data was plotted and students T-test was performed to calculate significance (t-test, p<0.05 vs. vehicle) of IRAK4 treated group vs. vehicle treated group. Percent inhibition of cytokine induction was calculated for IRAK4 treated group vs. vehicle treated group.
Table 4 contains data from multiple studies with columns for Compound, Dose in mg/kg (mpk) and % inhibition of serum TNF. In cases where doses of certain compounds were repeated in multiple experiments, the average percent inhibition of TNF and standard deviation is shown in the table.

[3] = molecular target: human IRAK4 FL (Full Length) (Homo sapiens (Human), UniProt Q9NWZ3); assay: IRAK4 Enzymatic DELFIA Assay, Protocol A; type: biochemical; conditions: 0.6 mM ATP (KM)
Chain of human IRAK4 FL (Full Length) (Q9NWZ3 whole entry): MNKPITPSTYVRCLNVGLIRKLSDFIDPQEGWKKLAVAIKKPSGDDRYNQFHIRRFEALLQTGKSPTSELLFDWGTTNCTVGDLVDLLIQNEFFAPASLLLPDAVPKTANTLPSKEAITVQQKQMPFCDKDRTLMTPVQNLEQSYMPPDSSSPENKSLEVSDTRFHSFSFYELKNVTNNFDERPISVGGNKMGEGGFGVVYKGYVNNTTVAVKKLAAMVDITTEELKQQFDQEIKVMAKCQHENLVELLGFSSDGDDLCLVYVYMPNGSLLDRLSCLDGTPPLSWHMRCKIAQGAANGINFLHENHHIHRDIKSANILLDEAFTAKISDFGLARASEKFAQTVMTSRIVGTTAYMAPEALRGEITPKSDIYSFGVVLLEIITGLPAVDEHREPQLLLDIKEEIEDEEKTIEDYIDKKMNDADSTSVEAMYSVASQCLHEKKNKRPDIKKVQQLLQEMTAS

SMILES: CC(C)Oc1cc2c(OC[C@@H]3CCC(=O)N3)nccc2cc1C(N)=O [Example 26, 1-{[(2S)-5-oxopyrrolidin-2-yl]methoxy}-7-(propan-2-yloxy)isoquinoline-6-carboxamide]
- hind paw swelling (delta paw volume) ([1]; 10 mg/kg PO, BID): transiently significant reduction in hind paw swelling only on Day 5 and Day 6
- days on which hind paw swelling in CIA rats was significantly reduced (t-test, p<0.05 vs. vehicle) ([1]; 30 mg/kg PO, BID, therapeutic treatment for 8 days): Day 2-Day 8
- days on which hind paw swelling in CIA rats was significantly reduced (t-test, p<0.05 vs. vehicle) ([1]; 100 mg/kg PO, BID, therapeutic treatment for 8 days): Day 1-Day 8 (end)
- hind paw swelling (delta paw volume) ([1]; therapeutic treatment BID daily for 8 days, t-test p<0.05 vs. vehicle): reduced the hind paw swelling in CIA rats significantly

SMILES: COc1cc2c(OC[C@H]3NC(=O)[C@@H](F)[C@H]3C)nccc2cc1C(N)=O [Example 189, 1-{[(2S,3S,4S)-4-fluoro-3-methyl-5-oxopyrrolidin-2-yl]methoxy}-7-methoxyisoquinoline-6-carboxamide]
- % inhib TNF ([2]; dose 30 mpk): 40%

SMILES: COc1cc2c(OC[C@@H]3C[C@](C)(F)C(=O)N3)cccc2cc1C(N)=O [Example 194, 5-{[(2S,4S)-4-fluoro-4-methyl-5-oxopyrrolidin-2-yl]methoxy}-3-methoxynaphthalene-2-carboxamide]
- % inhib TNF ([2]; dose 30 mpk): 76%

SMILES: CC(C)Oc1cc2c(OC[C@@H]3C[C@@H](C4(O)COC4)C(=O)N3)nccc2cc1C(N)=O [Example 193, 1-{[(2S,4S)-4-(3-hydroxyoxetan-3-yl)-5-oxopyrrolidin-2-yl]methoxy}-7-(propan-2-yloxy)isoquinoline-6-carboxamide]
- IC50 [3]: 238 nM

SMILES: Cc1ccc(-n2nc(C(C)(C)C)cc2NC(=O)Nc2ccc(OCCN3CCOCC3)c3ccccc23)cc1 [BIRB796, reference compound]
- days on which hind paw swelling in CIA rats was significantly reduced (t-test, p<0.05 vs. vehicle) ([1]; 30 mg/kg PO, QD, positive control (p38 inhibitor)): Day 1-Day 8

SMILES: COc1cc2c(OC[C@@H]3CCC(=O)N3)cccc2cc1C(N)=O [Example 173, 3-methoxy-5-{[(2S)-5-oxopyrrolidin-2-yl]methoxy}naphthalene-2-carboxamide]
- % inhib TNF ([2]; dose 30 mpk): 55%
- % inhib TNF ([2]; dose 100 mpk): 98%
